PMC12680558, “Design, Synthesis, In Silico Absorption, Distribution, Metabolism, and Elimination and Molecular Docking Studies of Thiazole‐Based Furan Derivatives, and Their Biological Evaluation for Alzheimer Disease Therapy” (ChemistryOpen, 2025)
Where “and” joins values, the source holds several entries; their conditions need not be identical. Equal values may be shown once.

What was measured:
[1] = target: T1, BChE (Equus caballus, UniProt P81908); test: biochemical; conditions: for Ki: Lineweaver–Burk plots; for IC50: substrate BChI, 37 °C
T1 construct: BChE (from horse serum); from tissue; host or cells: horse serum

[2] = target: T2, AChE (Electrophorus electricus, UniProt O42275); test: biochemical; conditions: for Ki: Lineweaver–Burk plots; for AChE/BChE SI (selectivity index): SI = KI (AChE)/KI (BChE); for IC50: substrate ATChI, 37 °C
T2 construct: AChE (from electric eels); from tissue
Protocol: Activity variations were tracked at 37 °C using acetylthiocholine iodide (ATChI) as a substrate for AChE (from electric eels) and butyrylcholine iodide (BChI) as a substrate for BChE (from horse serum).
Using at least five different inhibitor concentrations against the AChE and BChE enzymes, the inhibitory effects of thiazole‐based furan derivatives were assessed across a range of inhibitor doses. […] Furthermore, Lineweaver–Burk plots were used to assess inhibition types and inhibition constants (K I), providing thorough information on the kinetic behavior of these inhibitors.^[ [64] ^, [65] ^]

[3] = ABTS radical scavenging assay; conditions: 2 µg mL^−1
Protocol: (§1) The methods outlined by Blois and Re were used to assess the DPPH^ · and ABTS^+· free radical scavenging activities, respectively.^[ [58], [59] ^– [60] ^] A series of stock concentrations of synthesized thiazole‐based furan derivatives (2a‐2m) was prepared. For DPPH assay, a radical solution of 1 mM DPPH solution was prepared. Final concentrations were adjusted by diluting the sample stock solutions with ethanol to a total volume of 2 mL and then adding 0.5 mL of DPPH solution to each tube. The mixtures were incubated at room temperature and protected from light for 30 min. Absorbance was measured at 517 nm. In the ABTS test, 7 mM ABTS solution was prepared, and radical cations were formed by adding 2.45 mM persulfate. The absorbance of the control solution was adjusted to 0.700 ± 0.025 at 734 nm. For analysis, 0.5 mL of ABTS^+· radical solution was added to each sample. The absorbance at 734 nm was then measured against the blank solution following a 30 min incubation period.

[4] = DPPH radical scavenging assay; conditions: 2 µg mL^−1
Protocol: as §1

T2 sequence (O42275 24-633): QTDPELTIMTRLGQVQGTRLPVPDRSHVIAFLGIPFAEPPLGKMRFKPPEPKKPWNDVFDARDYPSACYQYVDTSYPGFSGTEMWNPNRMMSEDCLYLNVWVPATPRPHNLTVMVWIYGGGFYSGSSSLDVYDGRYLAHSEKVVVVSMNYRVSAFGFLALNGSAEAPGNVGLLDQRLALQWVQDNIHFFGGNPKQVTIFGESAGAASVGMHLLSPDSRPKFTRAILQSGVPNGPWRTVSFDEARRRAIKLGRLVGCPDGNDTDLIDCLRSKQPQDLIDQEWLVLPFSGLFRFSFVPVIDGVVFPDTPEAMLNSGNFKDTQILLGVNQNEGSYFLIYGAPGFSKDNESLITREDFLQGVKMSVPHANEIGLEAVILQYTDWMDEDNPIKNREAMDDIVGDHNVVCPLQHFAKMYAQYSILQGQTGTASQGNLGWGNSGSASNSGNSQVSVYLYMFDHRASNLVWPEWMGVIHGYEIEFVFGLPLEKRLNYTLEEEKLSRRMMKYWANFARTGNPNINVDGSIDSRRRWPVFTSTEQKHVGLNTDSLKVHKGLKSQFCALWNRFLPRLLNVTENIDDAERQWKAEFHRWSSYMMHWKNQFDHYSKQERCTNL
T1 sequence (P81908 whole entry): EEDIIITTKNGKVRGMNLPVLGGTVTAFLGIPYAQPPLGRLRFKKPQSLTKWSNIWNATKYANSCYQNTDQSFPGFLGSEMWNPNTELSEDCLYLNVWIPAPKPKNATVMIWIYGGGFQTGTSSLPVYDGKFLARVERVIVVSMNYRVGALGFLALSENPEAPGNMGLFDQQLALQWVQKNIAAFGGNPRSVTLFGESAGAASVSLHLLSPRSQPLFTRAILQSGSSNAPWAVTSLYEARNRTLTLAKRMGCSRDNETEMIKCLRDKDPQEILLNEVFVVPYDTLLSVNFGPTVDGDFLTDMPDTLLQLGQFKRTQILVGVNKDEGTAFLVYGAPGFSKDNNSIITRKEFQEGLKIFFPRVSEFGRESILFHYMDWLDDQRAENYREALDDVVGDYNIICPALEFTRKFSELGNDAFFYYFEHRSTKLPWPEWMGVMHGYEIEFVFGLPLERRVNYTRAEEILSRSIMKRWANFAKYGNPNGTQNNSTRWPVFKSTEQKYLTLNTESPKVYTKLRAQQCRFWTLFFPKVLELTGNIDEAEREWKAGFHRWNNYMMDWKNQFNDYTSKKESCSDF

SMILES: O=[N+]([O-])c1ccc(-c2csc(NN=Cc3ccc(CO)o3)n2)cc1 [2a, 4‐(4‐Nitrophenyl)‐2‐(2‐((5‐hydroxymethylfuran‐2‐yl)methylene)hydrazineyl)thiazole]
- Ki [1]: 6.03 ± 0.523 µM
- IC50 [1]: 8.77 µM
- Ki [2]: 14.9 ± 1.05 µM
- AChE/BChE SI (selectivity index) [2]: 2.469
- IC50 [2]: 21.7 µM
- ABTS percent radical scavenging [3]: 56.842% and 56.842 ± 4.346%
- DPPH percent radical scavenging [4]: 12.202% and 12.202 ± 0.965%

SMILES: COc1ccc(-c2csc(NN=Cc3ccc(CO)o3)n2)cc1 [2b, 4‐(4‐Methoxyphenyl)‐2‐(2‐((5‐Hydroxymethylfuran‐2‐Yl)methylene)hydrazineyl)thiazole]
- Ki [1]: 23.82 ± 0.132 µM
- IC50 [1]: 34.7 µM
- Ki [2]: 14.5 ± 1.12 µM
- AChE/BChE SI (selectivity index) [2]: 0.609
- IC50 [2]: 21.1 µM
- ABTS percent radical scavenging [3]: 2.105 ± 0.176%
- DPPH percent radical scavenging [4]: 1.109 ± 0.762%

SMILES: N#Cc1ccc(-c2csc(NN=Cc3ccc(CO)o3)n2)cc1 [2c, 4‐(4‐Cyanophenyl)‐2‐(2‐((5‐Hydroxymethylfuran‐2‐Yl)methylene)hydrazineyl)thiazole]
- Ki [1]: 9.53 ± 0.824 µM
- IC50 [1]: 13.9 µM
- Ki [2]: 31.8 ± 2.86 µM
- AChE/BChE SI (selectivity index) [2]: 3.334
- IC50 [2]: 46.2 µM
- ABTS percent radical scavenging [3]: 15.789 ± 1.365%
- DPPH percent radical scavenging [4]: 3.512 ± 0.237%

SMILES: OCc1ccc(C=NNc2nc(-c3ccc(F)cc3)cs2)o1 [2d, 4‐(4‐Fluorophenyl)‐2‐(2‐((5‐Hydroxymethylfuran‐2‐Yl)methylene)hydrazineyl)thiazole]
- Ki [1]: 7.44 ± 0.565 µM
- IC50 [1]: 10.8 µM
- Ki [2]: 36.7 ± 3.22 µM
- AChE/BChE SI (selectivity index) [2]: 4.925
- IC50 [2]: 53.3 µM
- ABTS percent radical scavenging [3]: 6.316 ± 0.584%
- DPPH percent radical scavenging [4]: 1.848 ± 0.095%

SMILES: OCc1ccc(C=NNc2nc(-c3ccc(-c4ccccc4)cc3)cs2)o1 [2e, 4‐([1,1^′‐Biphenyl]‐4‐Yl)‐2‐(2‐((5‐Hydroxymethylfuran‐2‐Yl)methylene)hydrazineyl) Thiazole]
- Ki [1]: 6.44 ± 0.452 µM
- IC50 [1]: 9.36 µM
- Ki [2]: 34 ± 2.1 µM
- AChE/BChE SI (selectivity index) [2]: 5.287
- IC50 [2]: 49.5 µM
- ABTS percent radical scavenging [3]: 17.105 ± 1.248%
- DPPH percent radical scavenging [4]: 4.621 ± 0.372%

SMILES: OCc1ccc(C=NNc2nc(-c3ccc(Br)cc3)cs2)o1 [2f, 4‐(4‐Bromophenyl)‐2‐(2‐((5‐Hydroxymethylfuran‐2‐Yl)methylene)hydrazineyl)thiazole]
- Ki [1]: 4.76 ± 0.321 µM
- IC50 [1]: 6.93 µM
- Ki [2]: 26.5 ± 1.81 µM
- AChE/BChE SI (selectivity index) [2]: 5.557
- IC50 [2]: 38.5 µM
- ABTS percent radical scavenging [3]: 22.107 ± 1.728%
- DPPH percent radical scavenging [4]: 7.579 ± 0.648%

SMILES: Cc1ccc(-c2csc(NN=Cc3ccc(CO)o3)n2)cc1 [2g, 4‐(4‐Methylphenyl)‐2‐(2‐((5‐Hydroxymethylfuran‐2‐Yl)methylene)hydrazineyl)thiazole]
- Ki [1]: 12.9 ± 1.21 µM
- IC50 [1]: 18.7 µM
- Ki [2]: 36.7 ± 2.56 µM
- AChE/BChE SI (selectivity index) [2]: 2.847
- IC50 [2]: 53.3 µM
- ABTS percent radical scavenging [3]: 11.053 ± 1.012%
- DPPH percent radical scavenging [4]: 4.067 ± 0.289%

SMILES: OCc1ccc(C=NNc2nc(-c3ccc(Cl)c(Cl)c3)cs2)o1 [2h, 4‐(3,4‐Dichlorophenyl)‐2‐(2‐((5‐Hydroxymethylfuran‐2‐Yl)methylene)hydrazineyl) Thiazole]
- Ki [1]: 8.21 ± 0.722 µM
- IC50 [1]: 11.9 µM
- Ki [2]: 26.7 ± 2.04 µM
- AChE/BChE SI (selectivity index) [2]: 3.257
- IC50 [2]: 38.9 µM
- ABTS percent radical scavenging [3]: 12.106 ± 1.036%
- DPPH percent radical scavenging [4]: 5.361 ± 0.486%

SMILES: OCc1ccc(C=NNc2nc(-c3ccc(F)cc3F)cs2)o1 [2i, 4‐(2,4‐Difluorophenyl)‐2‐(2‐((5‐Hydroxymethylfuran‐2‐Yl)methylene)hydrazineyl) Thiazole]
- Ki [1]: 6.52 ± 0.428 µM
- IC50 [1]: 9.49 µM
- Ki [2]: 43.4 ± 3.56 µM
- AChE/BChE SI (selectivity index) [2]: 6.650
- IC50 [2]: 63.1 µM
- ABTS percent radical scavenging [3]: 31.842% and 31.842 ± 2.785%
- DPPH percent radical scavenging [4]: 13.309% and 13.309 ± 1.278%

SMILES: OCc1ccc(C=NNc2nc(-c3ccccc3)cs2)o1 [2j, 4‐Phenyl‐2‐(2‐((5‐hydroxymethylfuran‐2‐yl)methylene)hydrazineyl)thiazole]
- Ki [1]: 13.6 ± 1.05 µM
- IC50 [1]: 19.7 µM
- Ki [2]: 42.5 ± 3.49 µM
- AChE/BChE SI (selectivity index) [2]: 3.134
- IC50 [2]: 61.9 µM
- ABTS percent radical scavenging [3]: 28.158 ± 2.075%
- DPPH percent radical scavenging [4]: 9.057 ± 0.834%

SMILES: OCc1ccc(C=NNc2nc(-c3ccc(Cl)cc3)cs2)o1 [2k, 4‐(4‐Chlorophenyl)‐2‐(2‐((5‐hydroxymethylfuran‐2‐yl)methylene)hydrazineyl)thiazole]
- Ki [1]: 8.51 ± 0.684 µM
- IC50 [1]: 12.4 µM
- Ki [2]: 39.4 ± 3.25 µM
- AChE/BChE SI (selectivity index) [2]: 4.629
- IC50 [2]: 57.3 µM
- ABTS percent radical scavenging [3]: 11.842 ± 0.982%
- DPPH percent radical scavenging [4]: 6.470 ± 0.574%

SMILES: OCc1ccc(C=NNc2nc(-c3ccc(Cl)cc3Cl)cs2)o1 [2l, 4‐(2,4‐Dichlorophenyl)‐2‐(2‐((5‐Hydroxymethylfuran‐2‐Yl)methylene)hydrazineyl) Thiazole]
- Ki [1]: 5.74 ± 0.384 µM
- IC50 [1]: 8.35 µM
- Ki [2]: 42.1 ± 3.79 µM
- AChE/BChE SI (selectivity index) [2]: 7.345
- IC50 [2]: 61.3 µM
- ABTS percent radical scavenging [3]: 21.053 ± 1.793%
- DPPH percent radical scavenging [4]: 4.436 ± 0.386%

SMILES: O=[N+]([O-])c1cccc(-c2csc(NN=Cc3ccc(CO)o3)n2)c1 [2m, 4‐(3‐Nitrophenyl)‐2‐(2‐((5‐Hydroxymethylfuran‐2‐Yl)methylene)hydrazineyl)thiazole]
- Ki [1]: 14.9 ± 1.35 µM
- IC50 [1]: 21.7 µM
- Ki [2]: 59.6 ± 4.82 µM
- AChE/BChE SI (selectivity index) [2]: 4.001
- IC50 [2]: 86.6 µM
- ABTS percent radical scavenging [3]: 30.789 ± 2.489%
- DPPH percent radical scavenging [4]: 11.275 ± 1.021%

SMILES: Cc1c(C)c2c(c(C)c1O)CCC(C)(C(=O)O)O2 (stereo not drawn) [Trolox, reference compound]
- ABTS percent radical scavenging [3]: 29.211 ± 2.043%
- DPPH percent radical scavenging [4]: 13.863 ± 1.023%
